Reference: ChEMBL document CHEMBL4392854, “Discovery, synthesis, biological evaluation and molecular docking study of (R)-5-methylmellein and its analogs as selective monoamine oxidase A inhibitors” (Bioorg Med Chem, 2019)

Key:
[1] = biological target: T1, Amine oxidase [flavin-containing] A (Homo sapiens, UniProt P21397); assay: Inhibition of human recombinant MAOA using kynuramine as substrate incubated for 10 mins by UPLC-ESI-MS/MS analysis
T1 sequence (P21397 whole entry): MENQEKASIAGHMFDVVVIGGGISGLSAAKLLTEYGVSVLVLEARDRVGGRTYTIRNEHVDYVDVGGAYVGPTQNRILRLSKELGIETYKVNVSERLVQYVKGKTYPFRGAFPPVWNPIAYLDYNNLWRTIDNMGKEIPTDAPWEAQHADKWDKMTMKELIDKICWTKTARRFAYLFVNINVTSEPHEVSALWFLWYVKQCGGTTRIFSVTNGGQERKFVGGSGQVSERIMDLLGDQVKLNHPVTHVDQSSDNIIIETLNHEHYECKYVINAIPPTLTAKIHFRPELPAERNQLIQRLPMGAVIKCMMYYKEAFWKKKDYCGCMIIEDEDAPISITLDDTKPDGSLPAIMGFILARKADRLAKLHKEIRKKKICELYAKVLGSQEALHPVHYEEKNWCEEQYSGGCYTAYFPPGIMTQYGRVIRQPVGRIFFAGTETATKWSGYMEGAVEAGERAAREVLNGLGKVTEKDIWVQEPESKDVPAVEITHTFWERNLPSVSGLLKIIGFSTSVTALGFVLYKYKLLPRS

[2] = biological target: T2, Amine oxidase [flavin-containing] B (Homo sapiens, UniProt P27338); assay: Inhibition of human recombinant MAOB using kynuramine as substrate incubated for 10 mins by UPLC-ESI-MS/MS analysis
T2 sequence (P27338 whole entry): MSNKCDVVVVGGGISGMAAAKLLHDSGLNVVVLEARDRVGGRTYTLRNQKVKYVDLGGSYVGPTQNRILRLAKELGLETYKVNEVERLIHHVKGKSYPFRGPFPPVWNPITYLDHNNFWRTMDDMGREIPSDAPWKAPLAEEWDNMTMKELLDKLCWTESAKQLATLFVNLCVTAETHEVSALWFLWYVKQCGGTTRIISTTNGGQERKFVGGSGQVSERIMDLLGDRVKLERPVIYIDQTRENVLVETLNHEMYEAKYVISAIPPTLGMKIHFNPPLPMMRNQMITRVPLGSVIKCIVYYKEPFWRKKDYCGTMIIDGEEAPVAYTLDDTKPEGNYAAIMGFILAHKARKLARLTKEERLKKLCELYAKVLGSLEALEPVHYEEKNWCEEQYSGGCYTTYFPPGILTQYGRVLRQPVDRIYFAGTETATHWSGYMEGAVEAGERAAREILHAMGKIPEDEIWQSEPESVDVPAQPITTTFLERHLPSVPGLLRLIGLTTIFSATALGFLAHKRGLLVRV

Homo sapiens = species: Homo sapiens; assay: Selectivity index, ratio of IC50 for human recombinant MAOB to IC50 for human recombinant MAOA
[3] = biological target: T1, Amine oxidase [flavin-containing] A; assay: Tight binding competitive inhibition of human recombinant MAOA using 50 uM to 1000 uM kynuramine as substrate incubated for 10 mins by UPLC-ESI-MS/MS analysis based kinetic analysis
[4] = biological target: T1, Amine oxidase [flavin-containing] A; assay: Inhibition of human recombinant MAOA using kynuramine as substrate incubated for 10 mins by UPLC-ESI-MS/MS analysis based Michaelis-Menten plot kinetic analysis
[5] = biological target: T1, Amine oxidase [flavin-containing] A; assay: Inhibition of human recombinant MAOA using kynuramine as substrate incubated for 10 mins by UPLC-ESI-MS/MS analysis based Eadie-Hofstee plot analysis
[6] = biological target: T1, Amine oxidase [flavin-containing] A; assay: Tight-binding competitive inhibition of human recombinant MAOA using kynuramine as substrate incubated for 10 mins by UPLC-ESI-MS/MS analysis based Lineweaver-Burk plot kinetic analysis

CC[C@@H]1Cc2c(C)cc(-c3cncnc3)c(O)c2C(=O)O1
IC50 [1]: 60 nM
IC50 [2]: > 50000 nM
Ratio IC50 (Homo sapiens): > 830
inhibition (INH) [3]: Active
inhibition (INH) [4]: Active
inhibition (INH) [5]: Active
inhibition (INH) [6]: Active
